# Where two headings read alike, the source gives them in different places.
# Key:
# SARS-CoV-2 Mpro = SARS-CoV-2 Mpro (Severe acute respiratory syndrome coronavirus 2, UniProt P0DTD1); type: biochemical
# [1] = target: His-tagged SARS-CoV-2 Mpro (Severe acute respiratory syndrome coronavirus 2, UniProt P0DTD1); test: Mpro inhibition in the presence of mammalian cell lysates; type: biochemical; settings: 50 µM substrate, 10 min, 37 °C
# human cathepsin L = human cathepsin L (Homo sapiens, UniProt P07711); test: Inhibition of human cathepsin L; type: biochemical; settings: in words
# human cathepsin B = human cathepsin B (Homo sapiens, UniProt P07858); test: Inhibition of human cathepsin B; type: biochemical; settings: in words
# SARS-CoV-2 = settings: Vero E6 cells; cited from earlier work
# [2] = Table 2, azapeptide nitriles, 50 µM substrate, pH 7.2, 37 °C, 60 min
# [3] = Table 3, 5-halopyridin-3-yl esters, kinetic analysis as Table 2
# Chain of human cathepsin L (P07711 114-333): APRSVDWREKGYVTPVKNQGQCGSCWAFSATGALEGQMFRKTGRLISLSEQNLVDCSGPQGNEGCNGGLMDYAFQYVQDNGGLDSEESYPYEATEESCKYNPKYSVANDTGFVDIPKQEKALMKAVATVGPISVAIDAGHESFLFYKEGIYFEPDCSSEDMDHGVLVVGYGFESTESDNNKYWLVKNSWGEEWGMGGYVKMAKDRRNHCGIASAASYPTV
Compound,k inac/K i (SARS-CoV-2 Mpro; [2]),Mpro inhibition in HEK and A549 cell lysates ([1]; inhibitor 1 μM),k inac/K i (SARS-CoV-2 Mpro; [3]),other results
CC[C@H](NC(=O)OCc1ccccc1)C(=O)N[C@H](C(=O)N[C@@H](CC(C)C)C(=O)N(C)N(C#N)CCC(N)=O)C(C)(C)C [Compound 7],21 400 M^−1 s^−1,–,–,–
O=C(Oc1cncc(Cl)c1)c1cc2cc(Cl)ccc2[nH]1 [Compound 17],–,virtually complete inhibition,29 100 M^−1 s^−1,cathepsin L inhibition (human cathepsin L): did not inhibit; cathepsin B inhibition (human cathepsin B): did not inhibit
CC[C@H](NC(=O)OCc1ccccc1)C(=O)N[C@H](C(=O)N[C@@H](Cc1ccccc1)C(=O)N(C)N(C#N)CCC(N)=O)C(C)(C)C [Compound 8],–,virtually complete inhibition,–,–
O=C(Oc1cncc(Cl)c1)c1ccc2[nH]c3c(c2c1)CCCC3 [Compound 19],–,–,5620 M⁻¹ s⁻¹,–
CN(C(=O)[C@H](Cc1ccccc1)NC(=O)OCc1ccccc1)N(C#N)CCC(N)=O [Compound 4],1150 M⁻¹ s⁻¹,–,–,Mpro inhibition in HEK and A549 cell lysates ([1]; inhibitor 10 μM): virtually complete inhibition
CC(C)C[C@H](NC(=O)[C@@H](NC(=O)OCc1ccccc1)C(C)(C)C)C(=O)N(C)N(C#N)CCC(N)=O [Compound 5],2060 M⁻¹ s⁻¹,–,–,–
CC(C)C[C@H](NC(=O)OCc1ccccc1)C(=O)N(C)N(C#N)CCC(N)=O [Compound 3],489 M⁻¹ s⁻¹,–,–,–
O=C(Oc1cncc(Cl)c1)c1cccc2c1CCN2 [5‐chloropyridin‐3‐yl dihydroindole‐4‐carboxylate],–,–,–,activity against infectivity and replication of SARS-CoV-2 (SARS-CoV-2): active
O=C(Oc1cncc(Br)c1)c1cccc2[nH]ccc12 [Compound 18],–,–,24 000 M^−1 s^−1,–
CN(C(=O)[C@H](Cc1ccccc1)NC(=O)[C@@H](NC(=O)OCc1ccccc1)C(C)(C)C)N(C#N)CCC(N)=O [Compound 6],36 000 M^−1 s^−1,virtually complete inhibition,–,–
